# Values quoted from earlier work, collected in patent publication US6054466A, “Inhibitors of farnesyl-protein transferase” (Merck & Co., Inc., priority 1998, dated 2000).
# Assays:
# Ras processing = details: by inhibiting the rate-limiting step in the isoprenoid biosynthetic pathway
# [1] = test system: farnesyl-protein transferase; details: via HMG-CoA reductase inhibition
Compound,Block of Ras processing in cells (Ras processing),Indirect inhibition of farnesyl-protein transferase in vivo [1]
CC[C@H](C)C(=O)O[C@H]1C[C@@H](C)C=C2C=C[C@H](C)[C@H](CC[C@@H]3C[C@@H](O)CC(=O)O3)[C@H]21 [lovastatin],blocks Ras processing in cells,Indirect inhibition
CC[C@H](C)C(=O)O[C@H]1CCC=C2C=C[C@H](C)[C@H](CC[C@@H]3C[C@@H](O)CC(=O)O3)[C@H]21 [compactin],,Indirect inhibition
